A melting point compilation (Tetko et al.; mined from patent text by program, amines drawn as free bases though some values may be those of a salt)

Structure (SMILES) | melting point [°C]
COc1cc(NC(=O)C2C(=O)N(C)C(=S)N(C)C2=O)ccc1Oc1ccc(C(F)(F)F)cc1Cl | 178 to 182
Cc1nc(COc2cc(-n3c(=O)cc(C(F)(F)F)n(C)c3=O)c(F)cc2Cl)cs1 | 145 to 147
Cc1cccc(NC(=O)NC2CN(C(=O)C3CCCCC3)c3ccccc3N(c3ccccc3)C2=O)c1 (stereo not drawn) | 165 to 168
Cc1cncc(-c2ccc(OC3SCC(O)C(O)C3O)cn2)c1 (stereo not drawn) | 165 to 166
CCOC(=O)c1ccc(NCCc2cccc3ccccc23)cc1 | 104 to 106
Oc1ccc(CCCc2ccc(O)cc2O)cc1 | 92 to 93
CCCCOc1ccc(C(=O)Nc2ccc3cc(CN4CCCC4CC(C)C)cnc3c2C)cc1 (stereo not drawn) | 128 to 130
Nn1c(=O)c2cc(F)c(Cl)nc2n(C2CC2)c1=O | 192 to 194
O=C(NCC1CCN(CC2(C(=O)O)CCOCC2)CC1)N1C(=O)C2(CCCC2)c2ccc(F)cc21 | 129
Cc1ccnc(N2CCN(CCCCC3Sc4ccccc4NC3=S)CC2)c1 (stereo not drawn) | 119
CCC(NCCN)(C(=O)O)c1cccc(Cl)c1 (stereo not drawn) | 207 to 208
Cc1[nH]c(=S)n(Nc2cccc(Br)c2)c1-c1ccccc1 | 190
Cc1ccc(OC(=O)N2CC3CC(CN(CC(O)COc4ccc(C#N)cc4)C3)C2)cc1 (stereo not drawn) | 125 to 126
CCCCOc1c(C(=O)O)n(CC2CC2)c(=O)c2ccc(Br)cc12 | 166 to 167
COc1ccc(Cn2c(=O)c3ccc([N+](=O)[O-])cc3n(CCCCBr)c2=O)cc1 | 122 to 123
O=C1NC(c2ccccc2)N(CCN2CCN(c3ccccc3)CC2)c2ccccc21 (stereo not drawn) | 142 to 144
Nc1ncccc1OCc1c(F)cccc1Cl | 123 to 130
CCCCCCCCn1c(=O)n(CCN2CCN(c3ccccc3OC)CC2)c(=O)c2cscc21 | 82 to 84
NC(=O)C1CCc2[nH]c3cc(Cl)c(F)cc3c2C1 (stereo not drawn) | 245 to 246
O=C1c2ccccc2-n2cnc(-c3nc(CCl)cs3)c2[C@@H]2CCN12 | 248 to 249
CC(=O)NC12CCCC(C1)C1CCC2C1 (stereo not drawn) | 138 to 139
OCC(O)CNC(c1ccccc1)C(O)c1ccccc1 (stereo not drawn) | 161 to 163
Nc1ccccc1Nc1ccc(Oc2ccc(C(c3ccc(Oc4ccc(Nc5ccccc5N)cc4)cc3)(C(F)(F)F)C(F)(F)F)cc2)cc1 | 62.4 to 64.1

Structure (SMILES) | melting point [°C]
CC1(C)CC(=O)Nc2cc(N)ccc21 | 161 to 163
Cc1cccc(CC(=O)O)c1OCCCc1cn(-c2ccc(Br)cn2)nc1C(C)(C)C | 62 to 63
O=[N+]([O-])c1cc(-c2ccncc2)ccc1Cl | 110 to 111
CN(Cc1cc2c(=O)c(C(=O)NCc3ccc(Cl)cc3)cn(C)c2o1)CC(O)c1ccoc1 (stereo not drawn) | 93 to 97
CNC(=O)n1sc(OC(C)C)nc1=O | 95
C=CCOC(=O)C(C#N)=C1Nc2ccccc2O1 | 181 to 183
CC(C)(C)c1ccc(NC(=O)Nc2ccc(Oc3cc(NCc4ccccc4)ncn3)cc2)cc1 | 118 to 120
CCCCSc1c2sc3ccccc3nc-2ccc1=O | 72
Cc1cc(-c2n[nH]c(=O)c(O)c2O)ccc1O | 265 to 267
CCCc1nc(S(=O)(=O)N(c2c(Cl)cccc2Cl)S(=O)(=O)c2nc(CCC)n(-c3ccccc3)n2)nn1-c1ccccc1 | 262 to 264
COCn1ccnc1C(O)(c1ccc(Cl)cc1Cl)c1ccc(Cl)cc1Cl | 146
C[C@@H]1O[C@](/C=C/C2CC2)(C(F)(F)F)c2c(ccc(F)c2F)NC1=O (relative stereo) | 192 to 193
CCCCCCCCCCCCCC/C=C\CN1C(=O)c2ccccc2C1=O | 56 to 60
CCc1cccc(CC(=O)O)c1OCCn1cc(CCOc2ncc(C(F)(F)F)cc2Cl)c(OC(C)C)n1 | 76.5 to 77.5
O=C(NCCO)c1cccc(-c2cccc3cc(Cc4ccc(OCC(F)(F)F)nc4)sc23)c1 | 123 to 124
CN(C)c1ccc(C(=O)NC(=O)Nc2ccc3c(c2)NC(=O)/C3=C\c2ccc[nH]2)cc1 | 285 to 290
CC(=C=CC(C)(C)c1ccc(Cl)cc1)C(=O)O | 106 to 108
O=c1oc(-c2cccc(C(F)(F)F)c2)nc2ccc(F)cc12 | 118 to 119
CC(C)(C)OC(=O)N1CCN(c2nccc(Oc3ccc(NC(=O)c4cc(F)cc(N5CCCCC5)c4)c4ccccc34)n2)CC1 | 175 to 177
O=c1[nH]c(=O)n2c3c(cccc13)CCC2CO (stereo not drawn) | 205 to 207
O=C(NCCO)c1cccc(-c2ccc3ccn(-c4ncc(Cl)cc4Cl)c3n2)c1 | 196 to 197
CNc1nc(-c2ccc(Cl)cc2)c(CCC(=O)O)o1 | 217 to 218
CC(C)(C)c1ccc(CCOc2ncnc3cnccc23)cc1 | 59 to 60

Structure (SMILES) | melting point [°C]
COc1ccc(C(=O)Nc2ccc3ccc(Nc4ccccc4)nc3n2)cc1 | 245
CC1(c2ccccc2)Cc2c3c(c(Cl)c(Cl)c2C1=O)OC(C(=O)O)C3 (stereo not drawn) | 188
CCOC(=O)c1c(-c2ccc(Cl)c(Cl)c2)csc1N1C(=O)c2ccccc2C1=O | 155 to 156
Cc1ccc(-c2ccc(S(C)(=O)=O)cc2)n1-c1ccc(Br)cc1 | 200 to 202
Nc1c(-c2ccc(I)cc2)nc2ccc(Cl)cc2c1C(=O)O | 243 to 245
CC(C)c1ccc(-c2cncc(-c3cccc(C(=O)O)c3)c2)cc1 | 155 to 156
O=C(NC(=S)Nc1ccc(Cl)c(Cl)c1)c1c(Cl)cccc1Cl | 240
NC(=O)c1cnn(C2OC(CO)C(O)C2O)n1 (stereo not drawn) | 150 to 151
O=S(=O)(c1ccc(O)cc1)c1ncsc1-c1ccccc1 | 195
O=[N+]([O-])c1c(N2CCc3ccccc3CC2)nc2c(c1O)CCCCC2 | > 200
O=C1[C@H]2CCC[C@H]2N(C(=O)CNCc2ccccc2)c2ccccc2N1Cc1ccccc1 (relative stereo) | 95 to 98
C[C@@](O)(C(=O)Nc1ccc(S(=O)(=O)c2ccc(F)cc2)cc1Cl)C(F)(F)F | 131 to 133
O=C1c2ccccc2C(=O)N1CC(=O)N1c2ccccc2N(Cc2ccccc2)C(=O)[C@H]2CCC[C@H]21 (relative stereo) | 247 to 249
Cc1nc(NC2CCCC2O)c2ncn(C3OC(CO)C(O)C3O)c2n1 (stereo not drawn) | 188 to 192
COC(=O)c1cccc(OCCC(C#N)NC(=O)C(Cc2cccc(C)c2)NC(=O)C(c2ccccc2)c2ccccc2)c1 (stereo not drawn) | 152 to 153
CC(=O)NC(=Cc1cccs1)C1=NC(=Cc2cccs2)C(=O)O1 | 218
CCc1nc(Cl)c([N+](=O)[O-])c(NC2CC2)n1 | 61 to 62
CC(C)(C)N1C(=O)c2cc([N+](=O)[O-])c(Cl)nc2C1=O | 100 to 104
CC12CCC(O)CC1CCC1C2C(=NO)CC2(C)C1CCC21OCCO1 (stereo not drawn) | 158 to 159
CCCCCCCCCCCCCCCCSc1cc(O)c(Sc2nnnn2-c2ccccc2)cc1O | 129 to 131
Cc1c(C(=O)Nc2ccc(OCCO)cc2)nnn1Cc1ccc(Cl)c(Cl)c1 | 140
Cc1cc(-c2cc(C(F)F)n3ncc(C(=O)Nc4cccc(S(N)(=O)=O)c4)c3n2)ccc1Cl | 264
Cc1ccc(-c2cc[nH]c2CC[N+](=O)[O-])cc1 | 81 to 82

The remaining lines, values ahead:

melting point [°C] | Structure (SMILES)
253 to 255 | Cc1cc(S)n2nc(CC(=O)O)nc2n1
160 | CCCc1ccccc1Sc1c(C)n(CC(=O)O)c2ccc(NS(C)(=O)=O)cc12
100 to 125 | C=C(CC1(CC)C(=O)CCC1=O)C1=CCCc2cc(OC)ccc21
87.3 to 91.1 | C=CCOc1cc(OC(=S)N2CCCC2)ccc1Cl
252 to 254 | COc1ccc(-n2cc(C(=O)O)c(=O)c3cc(F)c(F)c(F)c32)cc1
125 | COc1ccc(CCNC(=O)Cc2ccc(OC)c(OC)c2)cc1OC
230 to 235 | CCSc1ccnc2sc(C(N)=O)c(N)c12
190 to 192 | COc1ccc(/C(=C/C(=O)O)c2cc(C)cc(Cl)c2)cc1
110 to 111 | COc1ccc(CC(N(C)S(=O)(=O)c2ccc(C)cc2)C(C)(C)C(=O)Cl)cc1 (stereo not drawn)
143 | CC(C(=O)O)c1cc(Cl)c([N+](=O)[O-])cc1Cl (stereo not drawn)
54 to 56 | CCOC(=O)C(C)c1cc(C(C)(C)C)c(O)c(C(C)(C)C)c1 (stereo not drawn)
150 to 151 | CC(CCl)NC(=O)c1c(Cl)cccc1[Si](C)(C)C (stereo not drawn)
149 | COc1cccc(C=C2SC(=S)N(CC(=O)O)C2=O)c1-c1cc2c(cc1C)C(C)(C)CCC2(C)C
125 to 126 | CCOC(=O)C1=C(C)NC(C)=C(C(=O)OCC)C1c1cccc(Cl)c1Cl
83 to 84 | COc1ccc(/C=C(\C#N)c2ccsc2)cc1OC1CCCC1
248 to 250 | COc1ccc(Cl)cc1-c1c(N)c(=O)[nH]c2ccccc12
138 | Cn1c(Sc2ccc(C(=O)OCC(C)(C)C)c(Cl)c2)n[nH]c1=O
146 to 152 | Cc1c(OCC(=O)O)ccc(-c2noc3ccccc23)c1C
280 to 283 | CCn1cc(C(=O)O)c(=O)c2cc(F)c(N3CC(C)(N)C3)cc21
240 | COc1ccc(C(=O)C#Cc2ccc3c(c2)c(=O)n(Cc2ccc(F)cc2)c(=O)n3C)cc1
120 to 121 | CON=C(C)c1ccc(-c2ccc(C(=O)n3ccc4cc(OC)c(OCCN(C)C)cc43)cc2)c(C)c1
208 to 209 | COc1cc2ncnc(N3CCN(C(=O)Nc4cccnc4)CC3)c2cc1OC
131 | CON=C(C(=O)OC)c1csc(NC(=O)CCl)n1
82 to 83 | CCc1c(OC)cc(/C=C(\SC)S(C)=O)cc1OC (stereo not drawn)
118 to 120 | CCN(CC)C(=O)c1c(OC)ccc2cc(-c3ccc(OC)cc3)ccc12
92.5 to 94 | CCCCCC(CC(=O)O)c1cc(C(=O)CC)c(OC)cc1OC (stereo not drawn)
108 to 111 | COc1ccc([N+](=O)[O-])cc1C(C#N)O[Si](C)(C)C (stereo not drawn)
97 to 103 | C#CCOc1ccc(-c2ccccc2NC(=O)C(NS(=O)(=O)CC)C(C)C)cc1OC (stereo not drawn)
74 to 78 | COc1ccc(OCC2CCC(CBr)CC2)c(Cl)c1 (stereo not drawn)
